Data reported in patent US11332443B2, “Derivatives of halo quinabactin” (THE REGENTS OF THE UNIVERSITY OF CALIFORNIA, priority 2015, dated 2022).

Assays:
Assay type in all cases: biochemical
PYR1-HAB1 = biological target: T1, PYR1-HAB1 (Arabidopsis thaliana, UniProt O49686); assay: PP2C activity assay, PYR1-HAB1 inhibition; settings: for IC50: dose response in triplicate, non-linear regression; for activity at 0.2 µM: 200 nM test compound, 100 nM HAB1 PP2C, 200 nM receptor, read-out: % Inhibition of PYR/PYL-HAB1 at 200 nM: PYR1
T1 construct: 6xHis (N); made in house; host or cells: E. coli BL21[DE3]pLysS (stated for GST-HAB1)
T1 sequence (O49686 1-191): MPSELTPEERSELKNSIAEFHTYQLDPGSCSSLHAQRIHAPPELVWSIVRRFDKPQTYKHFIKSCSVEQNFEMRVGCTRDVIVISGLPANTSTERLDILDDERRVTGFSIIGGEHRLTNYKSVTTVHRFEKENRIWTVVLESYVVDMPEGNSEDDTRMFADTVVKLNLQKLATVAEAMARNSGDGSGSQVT
T1 sequence (Q9CAJ0 23-511 partner): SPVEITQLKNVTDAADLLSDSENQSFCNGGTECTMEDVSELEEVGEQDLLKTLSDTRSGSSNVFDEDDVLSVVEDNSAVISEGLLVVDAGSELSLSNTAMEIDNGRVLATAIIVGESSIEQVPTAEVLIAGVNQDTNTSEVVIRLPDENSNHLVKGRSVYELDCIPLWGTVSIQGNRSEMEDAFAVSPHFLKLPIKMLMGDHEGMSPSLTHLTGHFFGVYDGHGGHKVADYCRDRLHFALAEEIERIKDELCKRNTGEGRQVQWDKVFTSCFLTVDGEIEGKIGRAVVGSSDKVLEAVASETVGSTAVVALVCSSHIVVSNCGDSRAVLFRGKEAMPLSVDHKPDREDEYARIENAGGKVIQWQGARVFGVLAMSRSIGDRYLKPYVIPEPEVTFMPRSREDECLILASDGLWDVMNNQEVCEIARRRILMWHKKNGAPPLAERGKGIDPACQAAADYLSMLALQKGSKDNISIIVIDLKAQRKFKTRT
Description: (§1) The protein HAB1, a type 2 protein phosphatase (PP2C), is inhibited by PYR/PYL proteins in dependence of abscisic acid or other agonists. The potency of an agonist correlates with the level of inhibition of the PP2C, and therefore the IC50 (receptor-HAB1) can be used to compare the relative activity of different chemical analogues. Since inhibition of PP2C correlates to inhibition of seed-germination and increase in plant water-use efficiency, it serves as a powerful tool to quantify biological potential of a chemical acting as an analogue of abscisic acid.
(§2) HAB1 and PYL proteins were expressed and purified as described in Park et al. ((2009) Science 324(5930):1068-1071), with minor modifications. GST-HAB1 was produced by expression in BL21[DE3]pLysS host cells with an expression clone containing the HAB1 cDNA cloned into pGex-2T. Transformed E. coli cells were pre-cultured overnight, transferred to LB medium and cultured at 30° C. to culture A600 of ˜0.5 OD units. The culture was then cooled on ice and MnCl2 added to 4 mM and IPTG added to 0.3 mM. After 16 hours incubation at 15° C., cells were harvested and recombinant proteins were purified on glutathione agarose as described in Park et al. To obtain 6×His-PYL receptor fusion proteins, we used expression constructs previously described by Okamoto et al. 2013, (PNAS 110(29): 12132-12137).
(§3) PP2C activity assays using recombinant receptors and PP2Cs were carried out as follows: purified proteins were pre-incubated in 160 μl assay buffer containing (100 mM Tris-HCl-pH7.9, 100 mM NaCl, 3 μg bovine serum albumin and 0.1% 2-mercaptoethanol), 1 mM MnCl2 with carrier solvent (DMSO), quinabactin or quinabactin analogs (compounds of the present invention) for 30 minutes at room temperature. Reactions were started by adding 40 μL of a reaction solution containing 25 mM 4-nitrophenyl phosphate in assay buffer, after which absorbance measurements were immediately collected (405 nm) using a Wallac plate reader. […] Inhibition is indicated by reduced PP2C activity, which is expressed as a percentage of the control PP2C activity values that were obtained from assays containing carrier solvent instead but no test compound.

PYL2-HAB1 = biological target: T2, PYL2-HAB1 (Arabidopsis thaliana, UniProt O80992); assay: PP2C activity assay, PYL2-HAB1 inhibition; settings: for IC50: dose response in triplicate, non-linear regression; for percent inhibition at 0.2 µM: 200 nM test compound, 100 nM HAB1 PP2C, 200 nM receptor, read-out: % Inhibition of PYR/PYL-HAB1 at 200 nM: PYL2
T2 construct: 6xHis (N); made in house; host or cells: E. coli BL21[DE3]pLysS (stated for GST-HAB1)
T2 sequence (O80992 1-190): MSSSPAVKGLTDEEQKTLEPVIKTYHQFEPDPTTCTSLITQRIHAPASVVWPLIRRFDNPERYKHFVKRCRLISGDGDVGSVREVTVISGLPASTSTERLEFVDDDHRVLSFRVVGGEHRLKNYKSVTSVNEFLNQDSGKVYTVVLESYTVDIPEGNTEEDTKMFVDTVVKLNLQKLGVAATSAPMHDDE
T2 sequence (Q9CAJ0 23-511 partner): T1 sequence (Q9CAJ0 23-511 partner)
Description: as §1, §2, §3

PYL1-HAB1 = biological target: T3, PYL1-HAB1 (Arabidopsis thaliana, UniProt Q8VZS8); assay: PP2C activity assay, PYL1-HAB1 inhibition; settings: 200 nM test compound, 100 nM HAB1 PP2C, 200 nM receptor; read-out: % Inhibition of PYR/PYL-HAB1 at 200 nM: PYL1
T3 construct: 6xHis (N); made in house; host or cells: E. coli BL21[DE3]pLysS (stated for GST-HAB1)
T3 sequence (Q8VZS8 1-221): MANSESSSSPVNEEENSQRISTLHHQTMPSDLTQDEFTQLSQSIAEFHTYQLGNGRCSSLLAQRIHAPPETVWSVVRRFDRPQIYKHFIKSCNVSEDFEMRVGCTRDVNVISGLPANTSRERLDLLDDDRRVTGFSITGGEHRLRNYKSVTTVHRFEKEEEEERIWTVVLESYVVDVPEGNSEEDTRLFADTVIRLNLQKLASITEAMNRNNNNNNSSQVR
T3 sequence (Q9CAJ0 23-511 partner): T1 sequence (Q9CAJ0 23-511 partner)
Description: as §1, §2
PP2C activity assays using recombinant receptors and PP2Cs were carried out as follows: purified proteins were pre-incubated in 160 μl assay buffer containing (100 mM Tris-HCl-pH7.9, 100 mM NaCl, 3 μg bovine serum albumin and 0.1% 2-mercaptoethanol), 1 mM MnCl2 with carrier solvent (DMSO), quinabactin or quinabactin analogs (compounds of the present invention) for 30 minutes at room temperature. Reactions were started by adding 40 μL of a reaction solution containing 25 mM 4-nitrophenyl phosphate in assay buffer, after which absorbance measurements were immediately collected (405 nm) using a Wallac plate reader. Reactions contained 100 nM HAB1 PP2C and 200 nM receptor and 200 nM test compound. Inhibition is indicated by reduced PP2C activity, which is expressed as a percentage of the control PP2C activity values that were obtained from assays containing carrier solvent instead but no test compound.

IC50 (PYR1-HAB1) [nM] | IC50 (PYL2-HAB1) [nM] | activity at 0.2 µM (PYR1-HAB1) [%] | activity at 0.2 µM (PYL1-HAB1) [%] | percent inhibition at 0.2 µM (PYL2-HAB1) [%] | SMILES
967 | 1450 | – | – | – | CCCN1C(=O)CCc2cc(NS(=O)(=O)Cc3ccc(C)cc3)cc(C#N)c21 [HQ41]
– | – | 106 | 82.4 | 94.5 | CCCN1C(=O)CCc2cc(NS(=O)(=O)Cc3ccccc3C#N)cc(F)c21 [HQ12]
694 | 1460 | – | – | – | CCCN1C(=O)CCc2c1ccc(NS(=O)(=O)Cc1ccc(C)cc1)c2F [HQ46]
– | – | 90.8 | 85.7 | 87.8 | CCCN1C(=O)CCc2cc(NS(=O)(=O)Cc3cccc(Br)c3)cc(F)c21 [HQ23]
– | – | 82.7 | 73.4 | 82.3 | CCCN1C(=O)CCc2cc(NS(=O)(=O)Cc3ccc(C(F)(F)F)nc3)cc(F)c21 [HQ19]
405 | 112 | – | – | – | CCN1C(=O)CC(C)c2cc(NS(=O)(=O)Cc3ccc(C#N)cc3)cc(F)c21 (stereo not shown) [HQ49]
37.5 | 42 | 14.7 | 11.8 | 28 | CCCN1C(=O)CCc2cc(NS(=O)(=O)Cc3ccc(C)cc3)cc(F)c21 [HQ1]
63.3 | 102 | 35 | 34.2 | 46.7 | CCCN1C(=O)CCc2cc(NS(=O)(=O)Cc3ccc(Cl)cc3)cc(F)c21 [HQ18]
– | – | 90 | 79.8 | 88 | CCCN1C(=O)CCc2cc(NS(=O)(=O)Cc3cccc(Cl)c3)cc(F)c21 [HQ27]
– | – | 54.8 | 47.6 | 70.1 | CCCN1C(=O)CCc2cc(NS(=O)(=O)Cc3ccc(OC(F)(F)F)cc3)cc(F)c21 [HQ15]
– | – | 63.6 | 51.4 | 74.8 | CCCN1C(=O)CCc2cc(NS(=O)(=O)Cc3ccccc3)cc(F)c21 [HQ26]
1250 | 486 | – | – | – | CCN1C(=O)CC(C)c2cc(NS(=O)(=O)Cc3ccc(Cl)nc3)cc(F)c21 (stereo not shown) [HQ56]
589 | 247 | – | – | – | CCN1C(=O)CC(C)c2cc(NS(=O)(=O)Cc3ccc(C#N)cc3F)cc(F)c21 (stereo not shown) [HQ42]
> 10000 | 7730 | – | – | – | CCN1C(=O)CC(C)c2cc(NS(=O)(=O)c3ccccc3)cc(F)c21 (stereo not shown) [HQ45]
227 | 33 | – | – | – | COCc1ccc(CS(=O)(=O)Nc2cc(F)c3c(c2)C(C)CC(=O)N3C(C)C)cc1 (stereo not shown) [HQ37]
126 | 32 | – | – | – | C=CCN1C(=O)CC(C)c2cc(NS(=O)(=O)Cc3ccc(COC)cc3)cc(F)c21 (stereo not shown) [HQ36]
408 | 40 | – | – | – | Cc1ccc(CS(=O)(=O)Nc2cc(F)c3c(c2)C(C)CC(=O)N3C(C)C)cc1 (stereo not shown) [HQ32]
444 | 46 | – | – | – | CCN1C(=O)CC(C)c2cc(NS(=O)(=O)Cc3ccc(C)c(F)c3)cc(F)c21 (stereo not shown) [HQ52]
153 | 160 | – | – | – | CCN1C(=O)CC(C)c2cc(NS(=O)(=O)Cc3ccc(C)cn3)cc(F)c21 (stereo not shown) [HQ53]

IC50 (PYR1-HAB1) [nM] | IC50 (PYL2-HAB1) [nM] | activity at 0.2 µM (PYR1-HAB1) [%] | activity at 0.2 µM (PYL1-HAB1) [%] | percent inhibition at 0.2 µM (PYL2-HAB1) [%] | SMILES
17.2 | 83 | – | – | – | CCN1C(=O)CCc2cc(NS(=O)(=O)Cc3ccc(C)cc3)cc(F)c21 [HQ29]
953 | 94 | – | – | – | CCN1C(=O)CC(C)c2cc(NS(=O)(=O)Cc3ccc(Cl)s3)cc(F)c21 (stereo not shown) [HQ57]
512 | 234 | – | – | – | CCN1C(=O)CC(C)c2cc(NS(=O)(=O)Cc3ccc(Cl)cn3)cc(F)c21 (stereo not shown) [HQ54]
> 10000 | 1600 | – | – | – | CCN1C(=O)CC(C)c2cc(NS(=O)(=O)Cc3ccc(C)nc3)cc(F)c21 (stereo not shown) [HQ55]
> 10000 | 2010 | – | – | – | CCN1C(=O)CC(C)c2cc(NS(=O)(=O)Cc3ccc(Cl)cc3Cl)cc(F)c21 (stereo not shown) [HQ43]
164 | 52 | – | – | – | C=CCN1C(=O)CC(C)c2cc(NS(=O)(=O)Cc3ccc(C)cc3)cc(F)c21 (stereo not shown) [HQ31]
172 | 182 | – | – | – | CCCN1C(=O)CCc2cc(NS(=O)(=O)Cc3ccc(C)cc3)c(F)cc21 [HQ47, N-(7-fluoro-2-oxo-1-propyl-3,4-dihydroquinolin-6-yl)-1-(p-tolyl)methanesulfonamide]
37 | 12 | – | – | – | CCc1ccc(CS(=O)(=O)Nc2cc(F)c3c(c2)C(C)CC(=O)N3CC)cc1 (stereo not shown) [HQ35]
462 | 26 | – | – | – | CCc1ccc(CS(=O)(=O)Nc2cc(F)c3c(c2)C(C)CC(=O)N3C(C)C)cc1 (stereo not shown) [HQ34]
103 | 26 | – | – | – | CCN1C(=O)CC(C)c2cc(NS(=O)(=O)Cc3ccc(COC)cc3)cc(F)c21 (stereo not shown) [HQ38]
1260 | 77 | – | – | – | Cc1ccc(CS(=O)(=O)Nc2cc(F)c3c(c2)C(C)CC(=O)N3C2CC2)cc1 (stereo not shown) [HQ39]
> 10000 | 4470 | – | – | – | CCN1C(=O)CC(C)c2cc(NS(=O)(=O)Cc3ccc(C)cc3Br)cc(F)c21 (stereo not shown) [HQ50]
62.3 | 401 | – | – | – | C=CCN1C(=O)CCc2cc(NS(=O)(=O)Cc3ccc(C)cc3)cc(F)c21 [HQ28]
56 | 23 | – | – | – | CCN1C(=O)CC(C)c2cc(NS(=O)(=O)Cc3ccc(C)cc3F)cc(F)c21 (stereo not shown) [HQ48]
39.6 | 11 | – | – | – | CCN1C(=O)CC(C)c2cc(NS(=O)(=O)Cc3ccc(C)cc3)cc(F)c21 (stereo not shown) [HQ30, N-(1-ethyl-8-fluoro-4-methyl-2-oxo-3,4-dihydroquinolin-6-yl)-1-(p-tolyl)methanesulfonamide]
> 10000 | 930 | – | – | – | CCN1C(=O)CC(C)c2cc(NS(=O)(=O)Cc3ccc(C)cc3C)cc(F)c21 (stereo not shown) [HQ51]
204 | 61 | – | – | – | C=CCN1C(=O)CC(C)c2cc(NS(=O)(=O)Cc3ccc(CC)cc3)cc(F)c21 (stereo not shown) [HQ33]
2370 | 250 | – | – | – | CCN1C(=O)CC(C)c2cc(NS(=O)(=O)Cc3ccc(C(F)(F)F)cc3)cc(F)c21 (stereo not shown) [HQ44]
165 | 239 | – | – | – | CCCN1C(=O)CCc2cc(NS(=O)(=O)Cc3ccc(C)cc3)cc(Br)c21 [HQ40]
